# Measurements published in ChEMBL document CHEMBL5584236, “Development of novel bisphenol derivatives with a membrane-targeting mechanism as potent gram-positive antibacterial agents” (Eur J Med Chem, 2024).
# Legend:
# [1] = Cytotoxicity against HEK293 cells assessed reduction in cell viability incubated for 24 hrs by CCK-8 assay; assay type: toxicity, cell-based; conditions: human
# Escherichia coli = assay: Antibacterial activity against Escherichia coli ATCC25922 assessed as reduction in microbial growth incubated for 22 to 24 hrs by CLSI based broth microdilution method; assay type: functional; conditions: time 22-24 hrs
# Staphylococcus aureus [2] = assay: Antibacterial activity against methicillin-resistant Staphylococcus aureus N315 assessed as reduction in bacterial growth incubated for 22 to 24 hrs in presence of KCl by CLSI based broth microdilution method; assay type: functional; conditions: time 22-24 hrs
# Staphylococcus aureus [3] = assay: Antibacterial activity against Staphylococcus aureus ATCC29213 infected in C57BL6 mouse corneal infection model assessed as bacterial killing at 0.5 % administered topically on corneas for four times in 3 days by MHA plate counting method relative to control; assay type: functional; conditions: route top, time 3 day
# Staphylococcus aureus [4] = assay: Drug resistance, ratio of MIC for Staphylococcus aureus ATCC29213 after 20 passages to MIC for Staphylococcus aureus ATCC29213 after initial exposure; assay type: functional
# Staphylococcus aureus [5] = assay: Synergistic […] activity against Staphylococcus aureus ATCC29213 assessed as fractional inhibitory concentration index incubated for 22 to 24 hrs in presence of mupirocin by CLSI based broth microdilution method; assay type: functional; conditions: time 22-24 hrs
# [6] = Hemolytic activity against rabbit RBC incubated for 1 hr by multimode plate reader; assay type: toxicity, cell-based, Oryctolagus cuniculus, Erythrocyte; conditions: rabbit red blood cells (erythrocytes)
# [7] = tested on: Staphylococcus epidermidis; assay: Antibacterial activity against Staphylococcus epidermidis CMCC26069 assessed as reduction in microbial growth incubated for 22 to 24 hrs by CLSI based broth microdilution method; assay type: functional; conditions: time 22-24 hrs
# Staphylococcus aureus [8] = assay: Synergistic […] activity against methicillin-resistant Staphylococcus aureus NCTC10442 assessed as fractional inhibitory concentration index incubated for 22 to 24 hrs in presence of mupirocin by CLSI based broth microdilution method; assay type: functional; conditions: time 22-24 hrs
# Acinetobacter baumannii [9] = assay: Antibacterial activity against Acinetobacter baumannii R28889 assessed as reduction in microbial growth incubated for 22 to 24 hrs by CLSI based broth microdilution method; assay type: functional; conditions: time 22-24 hrs
# [10] = Cytotoxicity against HEK293 cells assessed as viable cells at 12.5 ug/ml incubated for 24 hrs by CCK-8 assay relative to control; assay type: toxicity, cell-based; conditions: human, at 12.5 µg/mL, read-out: Activity
# Staphylococcus aureus [11] = assay: Induction of membrane permeabilization in methicillin-resistant Staphylococcus aureus NCTC10442 assessed as increase in fluorescence intensity measured upto 60 mins by SYTOX green assay; assay type: functional, organism-based
# Acinetobacter baumannii [12] = assay: Antibacterial activity against Acinetobacter baumannii ATCC17978 assessed as reduction in microbial growth incubated for 22 to 24 hrs by CLSI based broth microdilution method; assay type: functional; conditions: time 22-24 hrs
compound,measurement,setting,value
COC(=O)[C@H](CCCNC(=N)N)NC(=O)[C@H](CCCNC(=N)N)NC(=O)COc1ccc(S(=O)(=O)c2ccc(OC/C=C(/C)CCC=C(C)C)cc2)cc1,CC50 at 24 h,[1],> 100 µg/mL
same,MIC,Escherichia coli,6.25 µg/mL
same,MIC,Staphylococcus aureus [2],1.56 µg/mL
same,Activity,Staphylococcus aureus [3],99.99%
same,Ratio,Staphylococcus aureus [4],4
same,fractional inhibitory concentration index (FICI),Staphylococcus aureus [5],0.625
same,HC50 at 1 h,[6],> 200 µg/mL
same,MIC,[7],1.56 µg/mL
same,fractional inhibitory concentration index (FICI),Staphylococcus aureus [8],1
same,MIC,Acinetobacter baumannii [9],6.25 µg/mL
same,"viability at 24 h, 12.5 ug/ml",[10],94.2%
same,Activity,Staphylococcus aureus [11],Dose-Dependent Effect
same,MIC,Acinetobacter baumannii [12],12.5 µg/mL
